Data set [1] concerns placental glutathione s-transferase (GST-p). In words: Immunohistochemical staining of liver sections, GST-p positive foci. The format is in vivo, albino Wistar rats. The method, then: (§1) The experimental hepatocarcinogenesis model was developed according to a protocol by Espandiaria et al. that was adapted for our purposes. To initiate and promote hepatocarcinogenesis, diethylnitrosamine (DEN) and 2-acetylaminofluorene (2-AAF) were used, respectively. For hepatocarcinogenesis initiation in this model, a single DEN dose (200 mg/kg b.wt.) dissolved in saline was injected intraperitoneally. After initiation, all rats underwent one period of 5-days fasting, as mitotic proliferative stimuli. To promote hepatocarcinogenesis, 2-acetylaminofluorene (2-AAF) was introduced in the form of six daily intragastric doses (30 mg/kg in 1% Tween 80); two weeks after DEN treatment.
(§2) Safranal at doses of 25 mg/kg by weight (b.wt.) and 50 mg/kg b.wt, was administrated orally to rats. These doses have been reported to suppress chemically-induced oxidative damage in rats. A total of 40 adult male albino Wistar rats were randomly divided into […] (n=8) and were subjected to different treatments. […]
(§3) For immunohistochemical staining, mounted sections were immersed in sodium citrate buffer (0.1 M, pH 6) and placed in a water bath for 15 minutes to unmask antigen epitopes. […] Ten fields were randomly selected to quantify positive cells, in individual samples (400×). […]

Another data set has as its system Ki-67. The data set is described as follows: Immunohistochemical staining of liver sections, Ki-67 (cell proliferation). The data set is classed as in vivo, albino Wistar rats. The method, then: as §1, §2, §3

Turning to `CC1=C(C=O)C(C)(C)CC=C1` [Safranal, 2,6,6-trimethylcyclohexa-1,3-diene-1-carbaldehyde], the “number of GST-p positive foci and area/cm^2” value in data set [1] (safranal treatment after DEN exposure (groups 4-5, 25/50 mg/kg b.wt.)) was “significantly reduced the number of GST-p positive foci and the area/cm^2”. Moreover, the GST-p positive foci result in data set [1] (safranal treatment alone (group 2)) was “did not induce formation of such foci”. Besides, the “number of Ki-67 positive cells” value in the data set with Ki-67 (low/high doses of safranal in animals exposed to DEN (groups 4-5)) is “dramatically reduced the number of Ki-67 positive cells”. The “number of Ki-67-expressing hepatocytes” value with Ki-67 (safranal alone (group 2)) is given as “did not induce a significant change”.

Values taken from patent US10912741B2, “Prevention of liver cancer with safranal-based formulations” (United Arab Emirates University, priority 2019, dated 2021).
